The assay has as its target T1, STAT3 (Homo sapiens, UniProt P40763).
T1 construct: GST-STAT3
Put plainly: TR-FRET displacement of fluorescent phosphopeptide (5-FAM-G(pY)LPQTVC-NH2) from GST-STAT3. The class given is binding. Background: In TR-FRET formats the signal depends on donor and acceptor labels being close together.

T1 sequence (P40763 2-770): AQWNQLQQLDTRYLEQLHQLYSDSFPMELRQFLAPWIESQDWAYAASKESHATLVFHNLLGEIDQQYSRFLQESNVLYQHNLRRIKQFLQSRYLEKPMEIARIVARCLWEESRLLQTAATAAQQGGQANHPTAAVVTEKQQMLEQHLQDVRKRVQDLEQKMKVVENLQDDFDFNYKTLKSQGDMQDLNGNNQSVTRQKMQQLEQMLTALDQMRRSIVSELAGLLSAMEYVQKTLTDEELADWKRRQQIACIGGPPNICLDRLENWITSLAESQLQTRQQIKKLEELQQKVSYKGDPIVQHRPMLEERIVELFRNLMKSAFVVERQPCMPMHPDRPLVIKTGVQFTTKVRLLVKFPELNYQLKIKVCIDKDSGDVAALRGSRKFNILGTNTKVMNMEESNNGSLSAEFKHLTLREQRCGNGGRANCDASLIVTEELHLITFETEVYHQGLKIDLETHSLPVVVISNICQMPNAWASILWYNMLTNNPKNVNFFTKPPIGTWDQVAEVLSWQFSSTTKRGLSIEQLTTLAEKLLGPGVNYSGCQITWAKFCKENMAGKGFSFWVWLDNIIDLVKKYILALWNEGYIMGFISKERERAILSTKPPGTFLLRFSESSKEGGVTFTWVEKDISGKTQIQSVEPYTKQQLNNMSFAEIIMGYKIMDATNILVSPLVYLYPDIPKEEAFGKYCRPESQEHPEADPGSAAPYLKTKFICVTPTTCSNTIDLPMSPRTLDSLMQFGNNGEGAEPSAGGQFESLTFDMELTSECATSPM

For orientation: IC50 means the point on the concentration scale where inhibition reaches its midpoint. For the substance S3I-1757, the IC50 came to 62.1 ± 6.1 µM.

(Values after publication PMC6667205, “Antitumor activity of novel pyrazole-based small molecular inhibitors of the STAT3 pathway in patient derived high grade glioma cells” (PLoS ONE, 2019).)
